From article PMC4510645, “Discovery of intramolecular trans-sialidases in human gut microbiota suggests novel mechanisms of mucosal adaptation” (Nature Communications, 2015) come the findings set out here.

The target of assay [1] is T1, RgNanH (Mediterraneibacter gnavus (Ruminococcus gnavus), UniProt A7B557).
T1 sequence (A7B557 26-723): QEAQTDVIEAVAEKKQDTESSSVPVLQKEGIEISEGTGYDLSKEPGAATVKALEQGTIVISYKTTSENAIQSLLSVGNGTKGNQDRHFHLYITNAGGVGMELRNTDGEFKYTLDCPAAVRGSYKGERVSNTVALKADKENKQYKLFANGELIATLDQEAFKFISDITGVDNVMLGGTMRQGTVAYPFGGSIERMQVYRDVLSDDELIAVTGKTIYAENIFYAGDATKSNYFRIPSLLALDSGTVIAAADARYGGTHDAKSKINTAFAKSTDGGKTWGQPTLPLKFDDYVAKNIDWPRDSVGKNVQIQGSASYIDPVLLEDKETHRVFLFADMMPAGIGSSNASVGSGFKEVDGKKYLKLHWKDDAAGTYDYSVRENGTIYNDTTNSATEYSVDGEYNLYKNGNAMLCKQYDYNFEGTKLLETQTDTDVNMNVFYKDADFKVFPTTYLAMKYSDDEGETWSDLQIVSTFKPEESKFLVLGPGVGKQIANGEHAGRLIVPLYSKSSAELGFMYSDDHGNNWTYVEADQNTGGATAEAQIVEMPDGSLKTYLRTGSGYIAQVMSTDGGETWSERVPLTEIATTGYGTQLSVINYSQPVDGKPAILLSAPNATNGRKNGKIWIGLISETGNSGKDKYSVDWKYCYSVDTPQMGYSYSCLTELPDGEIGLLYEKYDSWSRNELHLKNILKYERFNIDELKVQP
The assay is described as follows: Specificity against sialyl-oligosaccharides, HPAEC-PAD. Type of assay: biochemical, Ruminococcus gnavus ATCC 29149. The arrangement: key to Activity RgNanH: +: Activity was defined as disappearance of the substrate peak and appearance of a lower-molecular weight peak, which could correspond to the desialylated substrate. The settings on record: substrate 1 mM, 1 nM enzyme, 37 °C, pH 6.5, overnight. Here is the method: (§1) Figure 2 Specificity of RgNanH towards sialylated oligosaccharides. The enzymes were incubated with sialylated substrates at 37 °C, pH 6.5, overnight and the reaction products were analysed by HPAEC-PAD. Control reactions without enzyme were also performed. The injection peak is marked (inj). Glycerol (gly) was also present in AkmNan0625. (a) Standards (Lac, Neu5Ac, 3′SL and 6′SL), (b) 3′SL, (c) 6′SL and (d) 3'-α-sialyl-N-acetyllactosamine (3′SLacNAc). AkmNan1835 has a similar profile to […].
(§2) The purified enzymes were incubated with the substrate in buffer made from 20 mM Na2HPO4 and 20 mM NaH2PO4 adjusted to pH 6.5 containing 1 mg ml^−1 BSA at 37 °C unless otherwise stated. For 4MU-Neu5Ac, the progression of the reaction was monitored by the release of the MU using a 96-well plate reader (BMG Labtech, Ortenberg, Germany) using fluorescence with an excitation at 340 nm and an emission at 420 nm. For determining the optimal temperature, the assay was carried out in 20 mM PBS at pH 7.4. For determining the optimal pH, the assay was carried out at 37 °C using buffer made from 20 mM Na2HPO4 and 20 mM NaH2PO4 in varying proportions to obtain the desired pH. PNP release from PNP-Neu5Ac was monitored in a similar way measuring absorbance at 405 nm every 60 s. For 3′SL, the reaction was monitored by HPAEC-PAD. An aliquot of the reaction was removed from the main reaction volume at the reaction stopped by boiling for 20 min, the enzyme was then removed by centrifugation at 17,000g for 10 min and filtration with a 0.2-μm filter (Millipore, Billerica, USA). The sugars were separated by HPAEC with an isocratic gradient of 100 mM NaOH and 100 mM NaAC at 1 ml min^−1 on a CarboPac PA1 protected with a guard column and detected using PAD on a Dionex ICS5000 system (Thermo Scientific, Hemel Hempstead, UK). The column was cleaned with 10 ml of 500 mM NaOH and 500 mM NaAc, and the column was re-equilibrated with 100 mM NaOH and 100 mM NaAc. An internal standard of fucose was used to quantify the results.
(§3) For specificity tests against sialylated oligosaccharides (1 mM) and glycoproteins (1 mg ml^−1), 1 nM of enzyme was incubated with the substrate at 37 °C, pH 6.5, overnight.

The test system of assay [2] is AkmNan0625 and AkmNan1835. The assay is described as follows: Specificity against sialyl-oligosaccharides, HPAEC-PAD (control sialidases). The settings on record: substrate 1 mM, 1 nM enzyme, 37 °C, pH 6.5, overnight. It counts as biochemical, Akkermansia muciniphila. On the set-up: key to Activity AkmNan0625 and AkmNan1835: +: Activity was defined as disappearance of the substrate peak and appearance of a lower-molecular weight peak, which could correspond to the desialylated substrate. The protocol: as §1
All chemicals were obtained from Sigma (St Louis, USA) unless otherwise stated. The A. muciniphila sialidases, termed here AkmNan0625 and AkmNan1835, were obtained by His-Tag overexpression of their genes (Amuc_0625 and Amuc_1835, respectively)[56] in E. coli BL21(DE3) and subsequent purification to homogeneity by immobilized metal affinity chromatography as described below. The sialylated oligosaccharides and OC were obtained from Carbosynth (Berks, UK).
as §2, §3

Assay [3] concerns the target T1, RgNanH. Briefly: Kinetic parameters of RgNanH with sialylated substrates. Type of assay: biochemical, Ruminococcus gnavus ATCC 29149. The settings on record: pH 6.5, 37 °C. The protocol: as §2
For 4MU-Neu5Ac and 3′SL, the rate of hydrolysis without enzyme was not significant, thus raw data were used. However, for pNP-Neu5Ac, the rate of hydrolysis without enzyme was significant, thus the rate with enzyme was corrected by the subtraction of the rate without enzyme at each concentration of substrate. For 3′SL, the rate of reaction was calculated by plotting the amount of substrate remaining over the course of >50 % of the reaction using the following equation[58]: […]
Where k is kcat/KM × enzyme concentration, t is time, [S0] and [St] are substrate concentrations at time 0 and t, respectively.
Kinetic data were obtained from at least duplicate (usually triplicate) experiments, and the kinetic parameters were calculated by fitting the initial raw data to the Michaelis–Menten equation using a nonlinear regression analysis programme (Prism 6, GraphPad, San Diego, USA), and error bars (s.e.m.) are shown.

For assay [4], the target named is T1, RgNanH. The assay is described as follows: Inhibition of RgNanH activity against 4MU-Neu5Ac by neuraminidase inhibitors. Type of assay: biochemical, Ruminococcus gnavus ATCC 29149. To be noted: for LogIC50 / IC50: 4MU-Neu5Ac 0.51 mM, pre-incubated 15 min at 37 °C, pH 6.5. The protocol: Figure 1 Kinetic analysis of the hydrolysis of sialylated substrates by RgNanH in presence or absence of inhibitors. Substrate (a) 4MU-Neu5Ac or (b) PNP-Neu5Ac was incubated with RgNanH ([…] and 0.43 nM, respectively) at 37 °C, pH 6.5 and the release of product measured using a plate reader. (c) Inhibition of RgNanH (1.00 nM) incubated with 4MU-Neu5Ac (0.51 mM) by zanamivir (●), Neu5Ac2en (▪), siastatin B (▴) and OC (♦), the rates are normalized to a % of the uninhibited rate. [I] is the inhibitor concentration. (d) 3′SL was incubated with RgNanH (2.25 nM) and the release of product measured by HPAEC-PAD. Experiments were done at least in duplicate (usually triplicate) and the error bars show the s.e.m.
as §2, with “results. […]” for “results.”

“And” between values parts separate entries of the source, which are not always exact repeats. Equal entries are not always repeated. Where two headings read alike, the source gives them in different places.

Turning to `CO[C@@H]1O[C@H](CO)[C@@H](O[C@@H]2O[C@H](CO)[C@H](O)[C@H](O[C@]3(C(=O)O)C[C@H](O)[C@@H](NC(C)=O)[C@H]([C@H](O)[C@H](O)CO)O3)[C@H]2O)[C@H](O[C@@H]2O[C@@H](C)[C@@H](O)[C@@H](O)[C@@H]2O)[C@H]1NC(C)=O` [3′-Sialyl Lewis X methyl glycoside, Neu5Ac-α-2-3-Gal-β-1-4-[Fuc-a-1-3]-GlcNAc-β-OMe], the “Activity RgNanH” value at RgNanH [1] is “+”. Besides, the “Activity AkmNan0625 and AkmNan1835” value in assay [2] is “+”.

Regarding `CC(=O)N[C@H]1[C@H]([C@H](O)[C@H](O)CO)O[C@@](O[C@H]2[C@@H](O)[C@@H](CO)O[C@@H](O[C@H]3[C@H](O[C@@H]4O[C@@H](C)[C@@H](O)[C@@H](O)[C@@H]4O)[C@@H](NC(C)=O)C(O)O[C@@H]3CO)[C@@H]2O)(C(=O)O)C[C@@H]1O` (stereo partly drawn) [3′-Sialyl Lewis X, Neu5Ac-α-2-3-Gal-β-1-4-[Fuc-a-1-3]-GlcNAc], on RgNanH [1], the “Activity RgNanH” value is on record as “+”. In addition, the “Activity AkmNan0625 and AkmNan1835” value in assay [2] is “+”.

Take `CC(=O)N[C@H]1[C@H]([C@H](O)[C@H](O)CO)O[C@@](O[C@H]2[C@@H](O)[C@@H](CO)O[C@@H](O[C@H]3[C@H](O[C@@H]4O[C@@H](C)[C@@H](O)[C@@H](O)[C@@H]4O)[C@@H](O)C(O)O[C@@H]3CO)[C@@H]2O)(C(=O)O)C[C@@H]1O` (stereo partly drawn) [3′-Sialyl-3-fucosyllactose, Neu5Ac-α-2-3-Gal-β1-4-[Fuc-α-1-3]-Glc]: at RgNanH [1], the “Activity RgNanH” value is “+”. In assay [2], the “Activity AkmNan0625 and AkmNan1835” value is on record as “+”.

As to `CC(=O)NC1C(O)CC(OC2C(O)C(O)OC(CO)C2O)(C(=O)O)OC1C(O)C(O)CO` (stereo not drawn) [3′-Sialylgalactose, Neu5Ac-α-2-3-Gal], the “Activity RgNanH” value on RgNanH [1] was “+”. Also, in assay [2], the “Activity AkmNan0625 and AkmNan1835” value is “+”.

By kcat is commonly meant the number of substrate molecules converted per active site and unit of time at saturation. One may read the Km as the substrate concentration at which the rate is half of its maximum. Usually Vmax stands for the rate approached at saturating substrate. With `CC(=O)N[C@@H]1[C@@H](O)C[C@](Oc2ccc3c(C)cc(=O)oc3c2)(C(=O)O)O[C@H]1C(O)[C@H](O)CO` (stereo partly drawn) [4MU-Neu5Ac, 2′-(4-methylumbelliferyl)-α-D-N-acetylneuraminic acid], the Ki on RgNanH [3] (substrate inhibition, s.e.m.) came to 2370 ± 650 µM. In addition, the turnover number (kcat) on RgNanH [3] (substrate of RgNanH) is 6210 min⁻¹. For the same molecule, on RgNanH [3] (substrate of RgNanH, s.e.m.), the Michaelis-Menten constant (Km) was found to be 590 ± 170 µM and the Vmax was 1.37 ± 0.23 µM/min.

With `CC(=O)N[C@H]1[C@H]([C@H](O)[C@H](O)CO)OC(OC[C@H]2OC(O)[C@H](O)[C@@H](O)[C@H]2O)(C(=O)O)C[C@@H]1O` (stereo partly drawn) [6′-Sialylgalactose, Neu5Ac-α-2-6-Gal], the “Activity AkmNan0625 and AkmNan1835” value in assay [2] is given as “+”.

The IC50 is the concentration needed to halve the response being measured. Take `CC(=O)N[C@H]1[C@H]([C@H](O)[C@H](O)CO)OC(C(=O)O)=C[C@@H]1O` [Neu5Ac2en, 2-deoxy-2,3-didehydro-D-N-acetylneuraminic acid]: at RgNanH [4] (RgNanH 1.00 nM), the LogIC50 worked out at 0.15±0.04. Further, at RgNanH [4] (RgNanH 1.00 nM, read-out: IC50), the IC50 was 1400 µM and 1410 µM.

Molecule `CCC(CC)O[C@@H]1C=C(C(=O)O)C[C@H](N)[C@H]1NC(C)=O` [Oseltamivir carboxylate] gave a LogIC50 at RgNanH [4] (RgNanH 1.00 nM) of −1.53±0.02. Moreover, the IC50 at RgNanH [4] (RgNanH 1.00 nM, read-out: IC50) stood at 29.6 µM. On RgNanH [4] (compared with Neu5Ac2en (IC50: 1.4 mM to 30 μM)), the “improvement in inhibition of RgNanH” value is on record as around 50 fold.

As to `CC(=O)N[C@H]1[C@H]([C@H](O)[C@H](O)CO)O[C@@](Oc2ccc([N+](=O)[O-])cc2)(C(=O)O)C[C@@H]1O` [PNP-Neu5Ac, 2-O-(p-nitrophenyl)-α-D-N-acetylneuraminic acid], the turnover number (kcat) at RgNanH [3] (substrate of RgNanH) is <152 ^* min^−1. For the same molecule, at RgNanH [3] (substrate of RgNanH, s.e.m.), the Km was above 25000 µM.

On RgNanH [4] (RgNanH 1.00 nM), `CC(=O)N[C@H]1NC[C@H](C(=O)O)[C@H](O)[C@@H]1O` [Siastatin B] returned a LogIC50 of −2.31±0.02. The half-maximal inhibitory concentration (IC50) on RgNanH [4] (RgNanH 1.00 nM, read-out: IC50) stood at 4.87 µM.

As to `CC(=O)N[C@H]1[C@H]([C@H](O)[C@H](O)CO)OC(C(=O)O)=C[C@@H]1N=C(N)N` [Zanamivir, 4-guanidino-Neu5Ac2en], the half-maximal inhibitory concentration (IC50) is around 12000 µM against RgNanH [4] (IC50, RgNanH 1.00 nM) and 11900 µM on RgNanH [4] (RgNanH 1.00 nM, read-out: IC50). In addition, on RgNanH [4] (RgNanH 1.00 nM), the LogIC50 is 1.08±0.07.

Take “Neu5Ac-α-2-6-Gal-β-1-4-GlcNAc [6′-α-Sialyl-N-acetyllactosamine]”: the “Activity AkmNan0625 and AkmNan1835” value in assay [2] is “+”.
